Data set [1] relates to Transgenic mice over-expressing human SCCE. Kind of data set: Histological studies of skin morphology in SCCE transgenic mice after topical treatment. To be noted: for side effects (unusually thin epidermis): day 8 histology; for Unusually thin epidermis / Morphology changes: topical once daily 8 days, day 8; for Unusually thin epidermis: mice affected/mice in group; for Morphology changes: mice with changes/mice in group. The data set is classed as in vivo. From the text: (§1) Transgenic mice over-expressing human SCCE under the control of the SV40 early promoter were generated as described in WO 02/062135. These transgenic mice show a pattern of SCCE-expression which is similar to the expression pattern seen in psoriasis lesions and chronic lesions in atopic dermatitis in humans, i.e. expression in suprabasal cells which increases with distance from the basal layer. The transgenic mice develop pathological skin changes with marked hyperkeratosis, increased epidermal thickness, and dermal inflammation. From the age of 8-10 weeks transgenic mice show signs of itch, the frequency of which increase with age. The increase marked changes in skin morphology including increased epidermal thickness, also causes higher transepidermal water loss.
Transgenic mice, 6-9 month of age, were treated daily with compound I-3 (2-(2-Iodo-phenyl)-6,7-dimethoxy-benzo[d][1,3]oxazin-4-one) which was identified as an SCCE inhibitor as described above during 8 days. The substance was initially dissolved in DMSO and formulated in vehicle containing 45% isopropanol, 6% 1,2-propanediol with a 1.2% final concentration of DMSO. Two different concentrations of inhibitor, 300 μM and 30 μM, were formulated.
The study contained four different treatments with 3-4 mice in each group. Each mouse used in the study had phenotypic changes typical of SCCE transgenic animals.
• high dose (300 μM) of compound I-3 • low dose (30 μM) of compound I-3 • positive control (a pharmaceutical formulation (Betnovat, Glaxo SmithKline AB) containing betametasone) • negative control, vehicle (a pharmaceutical formulation lacking active substance)
The formulations (500 μl/mouse) were applied once daily (late afternoon) on the area around the ears and on the back of the mice. Mice were treated during 8 days and measurements of transepidermal water loss (TEWL) were performed during the treatment period.
Histological studies of skin morphology were performed on sacrificed mice after the last day of treatment (day 8). Tissue samples were fixed in 4% phosphate-buffered formaldehyde for 24 h in room temperature (RT) and then embedded in paraffin using standard histological procedure. To analyze tissue morphology, embedded tissue was sectioned (5 μm) and then stained with haematoxylin and Eosin (H/E) using standard histological protocols.

Data set [2] deals with T1, Recombinant active human SCCE (Homo sapiens, UniProt P49862).
T1 construct: made in house; host or cells: murine C127 cells transfected with a BPV vector (murine MT promoter)
T1 sequence (P49862 30-253): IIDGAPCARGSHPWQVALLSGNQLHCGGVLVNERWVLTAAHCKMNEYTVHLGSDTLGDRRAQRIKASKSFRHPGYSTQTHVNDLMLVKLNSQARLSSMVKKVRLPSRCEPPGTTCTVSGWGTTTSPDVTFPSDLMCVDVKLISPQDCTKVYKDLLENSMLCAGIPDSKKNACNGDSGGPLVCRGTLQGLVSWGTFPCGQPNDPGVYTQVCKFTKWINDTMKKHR
Kind of data set: SCCE Inhibitor Test (chromogenic substrate S-2586, absorbance at 405 nm). The data set is classed as biochemical. The settings on record: for IC50: 10 min preincubation, 1 mM S-2586, 60 min, 37° C, pH 7.2; for remaining activity at 1 µM: 1 μM compound; for remaining activity at 5 µM: 5 μM compound. As to the method: Recombinant active human SCCE was produced essentially as described in WO 95/00651. The cDNA encoding human SCCE was introduced into a BPV vector under the control of the murine MT promoter and expressed in transfected C127 cells. The produced SCCE was purified and activated using immobilized bovine trypsin.
SCCE activity was determined using the chromogenic substrate S-2586 (MeO-Suc-Arg-Pro-Tyr-pNA) (Chromogenix, Mölndal, Sweden) by measurement of the change in absorbance at 405 nm essentially as described in WO 95/00651. Inhibitors were dissolved in DMSO and added to the reaction mixture (10 mM sodium phosphate, pH 7.2, 0.5 M NaCl, 2.5 μg/ml SCCE) at appropriate concentrations followed by incubation for 10 min before the start of the enzymatic reaction by subsequent addition of the substrate S-2586 to a final concentration of 1 mM. The change in absorbance at 405 nm after 60 min was recorded and used as a measure of SCCE activity. The assay temperature was 37° C. […] The IC50 values were used to identify compounds as SCCE inhibitors of the invention.

Data set [3] relates to Transgenic mice over-expressing human SCCE. Briefly: Transepidermal water loss (TEWL) in SCCE transgenic mice after topical treatment. To be noted: both concentrations (30 μM and 300 μM), topical once daily, 8 days, relative to positive control Betamethasone. It counts as in vivo.
Excerpt: as §1
Transgenic mice, 6-9 month of age, were treated daily with compound I-3 (2-(2-Iodo-phenyl)-6,7-dimethoxy-benzo[d][1,3]oxazin-4-one) which was identified as an SCCE inhibitor as described above during 8 days. The substance was initially dissolved in DMSO and formulated in vehicle containing 45% isopropanol, 6% 1,2-propanediol with a 1.2% final concentration of DMSO. […]
TEWL was measured on the back of mice with an Evaporimeter from DermaLAB (Cortex Technology ApS, Hadsund, Denmark) according to manufactures protocol. […] TEWL was measured on in the morning at day 0, 3, 5 and 8 for 1 min repeated twice.

[4] abbreviates: positive control formulation (Betnovat).

Data on ten compounds can be found in patent US7872052B2, “Use of heterocyclic compounds as SCCE inhibitors” (Arexis AB, priority 2003, dated 2011).

Regarding `C[C@H]1C[C@H]2[C@@H]3CCC4=CC(=O)C=C[C@]4(C)[C@@]3(F)[C@@H](O)C[C@]2(C)[C@@]1(O)C(=O)CO` [Betamethasone, reference compound], the “side effects (unusually thin epidermis)” value in data set [1] is listed as “side effects (unusually thin epidermis) found”. In data set [1] (setting [4]), the Unusually thin epidermis is reported as 3/3 and the Morphology changes is recorded as 0/3.

As to `COc1cc2nc(-c3ccccc3I)oc(=O)c2cc1OC` [Compound I-3, 2-(2-Iodo-phenyl)-6,7-dimethoxy-benzo[d][1,3]oxazin-4-one], the half-inhibitory concentration (IC50) in data set [2] was 100 nM. For the same compound, the remaining activity at 10 µM in data set [2] (1 h, 10 μM compound) was 0%. Also, the “improvement of TEWL” value in data set [3] is on record as “improves TEWL with approximately half the efficiency of the positive control”. Besides, in data set [1] (30 μM), the Unusually thin epidermis was 0/4 and the Morphology changes is recorded as 1/4. Besides, in data set [1] (300 μM), the Unusually thin epidermis was 0/4 and the Morphology changes is 1/4. In addition, the “effects on skin morphology” value in data set [1] (both concentrations (30 μM and 300 μM), compared with vehicle group) is recorded as “positive effects on skin morphology to a higher degree then vehicle group”. The “side effects (unusually thin epidermis)” value in data set [1] is “without the side effects”.

Take `O=c1oc(-c2ccccc2F)nc2sc3c(c12)CCCC3` [II-15, 2-(2-Fluoro-phenyl)-5,6,7,8-tetrahydro-3-oxa-9-thia-1-aza-fluoren-4-one]: in data set [2], the half-inhibitory concentration (IC50) amounted to 70 nM. In addition, in data set [2] (1 h), the remaining activity at 1 µM stood at 7% and the remaining activity at 5 µM turned out to be 2.4%.

Take `COc1ccccc1-c1nc2sc3c(c2c(=O)o1)CCCC3` [II-16, 2-(2-Methoxy-phenyl)-5,6,7,8-tetrahydro-3-oxa-9-thia-1-aza-fluoren-4-one]: the half-inhibitory concentration (IC50) in data set [2] turned out to be 70 nM. Also, in data set [2] (1 h), the remaining activity at 1 µM turned out to be 2.7% and the remaining activity at 5 µM stood at 0%.

Regarding `O=c1oc(-c2ccccc2)nc2sc3c(c12)CCCC3` [II-17, 2-Phenyl-5,6,7,8-tetrahydro-3-oxa-9-thia-1-aza-fluoren-4-one], the IC50 in data set [2] came to 700 nM. Also, in data set [2] (1 h), the remaining activity at 1 µM came out at 45% and the remaining activity at 5 µM was 33%.

As to `O=c1oc(-c2cccc3ccccc23)nc2sc3c(c12)CCCC3` [II-18, 2-Naphtalen-1-yl-5,6,7,8-tetrahydro-3-oxa-9-thia-1-aza-fluoren-4-one], in data set [2], the IC50 was 1000 nM. Moreover, in data set [2] (1 h), the remaining activity at 1 µM stood at 38% and the remaining activity at 5 µM is 41%.

With `O=c1oc(-c2cccs2)nc2sc3c(c12)CCCC3` [II-19, 2-Thiophen-2-yl-5,6,7,8-tetrahydro-3-oxa-9-thia-1-aza-fluoren-4one], in data set [2], the 50% inhibitory concentration (IC50) stood at 1000 nM. For the same compound, in data set [2] (1 h), the remaining activity at 1 µM is 52% and the remaining activity at 5 µM amounted to 41%.

With `COc1cccc(-c2nc3sc4c(c3c(=O)o2)CCCC4)c1` [II-20, 2-(3-Methoxy-phenyl)-5,6,7,8-tetrahydro-3-oxa-9-thia-1-aza-fluoren-4-one], the half-maximal inhibitory concentration (IC50) in data set [2] came to 2000 nM. Besides, in data set [2] (1 h), the remaining activity at 1 µM amounted to 52% and the remaining activity at 5 µM was 42%.

As for `O=c1oc(-c2ccncc2)nc2sc3c(c12)CCCCC3` [II-21, 2-Pyridin-4-yl-6,7,8,9-tetrahydro-5H-3-oxa-10-thia-1-aza-benzo[a]azulen-4-one], in data set [2], the half-maximal inhibitory concentration (IC50) is 2000 nM.

With `Cc1nc2sc3c(c2c(=O)o1)CCCCC3` [II-22, 2-Methyl-6,7,8,9-tetrahydro-5H-3-oxa-10-thia-1-aza-benzo[a]azulen-4-one], the IC50 in data set [2] is greater than 10000 nM. For the same compound, in data set [2] (1 h), the remaining activity at 1 µM is 49% and the remaining activity at 5 µM is 27%.
